What all share (format): biochemical
The target in experiment [1] is T1, PFK (6-phosphofructokinase) (Thermus thermophilus, UniProt P21777).
T1 construct: gene pfkA; heat-treated lysate of recombinant E. coli; native form, untagged; Riken HB8 expression plasmid
Kind of experiment: coupled assay, NAD+ reduction at […] nm. Conditions: 0.1 mM substrate, 0.2 mM ATP, 5 mM MgCl2, 0.5 mM MnCl2, pH 7.0, 50 °C.

The target in experiment [2] is T2, Thermus lactate dehydrogenase (LDH) (Thermus thermophilus, UniProt Q5SJA1).
T2 construct: heat-treated (70 °C, 30 min) lysate of recombinant E. coli; native form, untagged
Kind of experiment: spectrophotometric NADH oxidation at […] nm. Conditions: 0.2 mM pyruvate, 0.2 mM NADH, pH 7.0, 50 °C; inhibitor.

The target of experiment [3] is T3, FBA (fructose-bisphosphate aldolase) (Thermus thermophilus, UniProt Q5SHF7).
T3 construct: gene TTHA1773; heat-treated lysate of recombinant E. coli; native form, untagged; Riken HB8 expression plasmid
T3 sequence (Q5SHF7 1-305): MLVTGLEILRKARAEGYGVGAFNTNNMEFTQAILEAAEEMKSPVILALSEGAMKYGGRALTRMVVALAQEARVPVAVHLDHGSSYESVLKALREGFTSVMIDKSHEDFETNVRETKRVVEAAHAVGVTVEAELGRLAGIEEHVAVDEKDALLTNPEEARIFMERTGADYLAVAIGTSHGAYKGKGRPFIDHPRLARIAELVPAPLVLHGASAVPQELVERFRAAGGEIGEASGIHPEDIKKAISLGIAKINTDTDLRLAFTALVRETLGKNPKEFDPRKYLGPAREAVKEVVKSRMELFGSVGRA
Briefly: coupled assay, NAD+ reduction at […] nm. Conditions: 0.1 mM substrate, 5 mM MgCl2, 0.5 mM MnCl2, pH 7.0, 50 °C.

Experiment [4] has as its target T4, malate/lactate dehydrogenase (MLDH) (Thermus thermophilus, UniProt Q53W84).
T4 construct: gene TTHB078; heat-treated lysate of recombinant E. coli; native form, untagged; Riken HB8 expression plasmid
Kind of experiment: NADH oxidation at […] nm. Conditions: 0.2 mM pyruvate, 0.2 mM NADH, 5 mM MgCl2, 0.5 mM MnCl2, pH 7.0, 50 °C.

Molecules are shown by their SMILES.

T2 sequence (Q5SJA1 whole entry): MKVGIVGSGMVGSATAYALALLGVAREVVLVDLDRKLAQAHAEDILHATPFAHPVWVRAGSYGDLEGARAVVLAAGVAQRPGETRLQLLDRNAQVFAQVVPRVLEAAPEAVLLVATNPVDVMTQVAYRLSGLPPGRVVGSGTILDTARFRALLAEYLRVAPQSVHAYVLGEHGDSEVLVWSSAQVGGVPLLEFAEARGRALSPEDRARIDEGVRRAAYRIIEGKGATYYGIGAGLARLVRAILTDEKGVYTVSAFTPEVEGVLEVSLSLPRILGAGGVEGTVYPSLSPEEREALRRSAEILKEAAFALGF
T1 sequence (P21777 whole entry): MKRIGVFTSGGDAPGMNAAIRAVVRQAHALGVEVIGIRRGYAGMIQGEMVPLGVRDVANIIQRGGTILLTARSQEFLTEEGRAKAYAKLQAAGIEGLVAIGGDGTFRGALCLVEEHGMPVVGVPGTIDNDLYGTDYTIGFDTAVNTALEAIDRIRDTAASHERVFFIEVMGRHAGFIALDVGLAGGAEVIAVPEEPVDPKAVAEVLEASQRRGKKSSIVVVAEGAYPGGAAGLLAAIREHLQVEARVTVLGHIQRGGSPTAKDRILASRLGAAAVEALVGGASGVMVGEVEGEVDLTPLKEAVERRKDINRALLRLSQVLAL
T4 sequence (Q53W84 entry or part of it): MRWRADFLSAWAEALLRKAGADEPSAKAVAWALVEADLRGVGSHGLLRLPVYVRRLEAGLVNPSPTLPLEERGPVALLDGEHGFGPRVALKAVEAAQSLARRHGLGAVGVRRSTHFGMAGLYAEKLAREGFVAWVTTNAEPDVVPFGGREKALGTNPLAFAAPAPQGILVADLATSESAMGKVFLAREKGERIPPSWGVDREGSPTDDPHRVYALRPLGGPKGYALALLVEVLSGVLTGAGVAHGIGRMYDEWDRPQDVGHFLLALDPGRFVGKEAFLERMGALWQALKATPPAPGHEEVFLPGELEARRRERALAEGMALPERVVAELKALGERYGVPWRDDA

On to `Nc1ncnc2c1ncn2[C@@H]1O[C@H](COP(=O)(O)OP(=O)(O)OP(=O)(O)O)[C@@H](O)[C@H]1O` [ATP], for which the “coupled assay, NAD+ reduction at 340 nm” value in experiment [1] was “phosphorylation of F6P catalyzed by PFK”.

For `NC(=O)c1ccc[n+]([C@@H]2O[C@H](COP(=O)(O)OP(=O)(O)OC[C@H]3O[C@@H](n4cnc5c(N)ncnc54)[C@H](O)[C@@H]3O)[C@@H](O)[C@H]2O)c1` [NAD^+], the “% decrease in activity at 1 mM” value in experiment [2] is listed as 95%.

`O=P(O)(O)OC[C@H]1OC(O)(COP(=O)(O)O)[C@@H](O)[C@@H]1O` (stereo partly shown) [fructose-1,6-bisphosphate]: in experiment [3], the “coupled assay, NAD+ reduction at 340 nm” value is listed as “fructose-6-phosphate, fructose-1,6-bisphosphate, dihydroxyacetone phosphate”.

In the case of `CC(=O)C(=O)O` [pyruvate], the “NADH oxidation at 340 nm” value in experiment [4] is on record as “The enzyme was confirmed to show pyruvate reducing activity”.

The values above are taken from article PMC3512521, “Synthetic metabolic engineering-a novel, simple technology for designing a chimeric metabolic pathway” (Microbial Cell Factories, 2012).
